As a reminder, the inhibition is the drop in the measured response relative to a control, in per cent.

The structures appear in SMILES notation. Active and inactive are the calls of the source.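 How the source made its calls: active means EGF receptor protein level falling or rising by at least 30% versus DMSO-treated cells; inactive means the rest.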

Chain of Epidermal growth factor receptor (Homo sapiens) (P00533 whole entry, looked up): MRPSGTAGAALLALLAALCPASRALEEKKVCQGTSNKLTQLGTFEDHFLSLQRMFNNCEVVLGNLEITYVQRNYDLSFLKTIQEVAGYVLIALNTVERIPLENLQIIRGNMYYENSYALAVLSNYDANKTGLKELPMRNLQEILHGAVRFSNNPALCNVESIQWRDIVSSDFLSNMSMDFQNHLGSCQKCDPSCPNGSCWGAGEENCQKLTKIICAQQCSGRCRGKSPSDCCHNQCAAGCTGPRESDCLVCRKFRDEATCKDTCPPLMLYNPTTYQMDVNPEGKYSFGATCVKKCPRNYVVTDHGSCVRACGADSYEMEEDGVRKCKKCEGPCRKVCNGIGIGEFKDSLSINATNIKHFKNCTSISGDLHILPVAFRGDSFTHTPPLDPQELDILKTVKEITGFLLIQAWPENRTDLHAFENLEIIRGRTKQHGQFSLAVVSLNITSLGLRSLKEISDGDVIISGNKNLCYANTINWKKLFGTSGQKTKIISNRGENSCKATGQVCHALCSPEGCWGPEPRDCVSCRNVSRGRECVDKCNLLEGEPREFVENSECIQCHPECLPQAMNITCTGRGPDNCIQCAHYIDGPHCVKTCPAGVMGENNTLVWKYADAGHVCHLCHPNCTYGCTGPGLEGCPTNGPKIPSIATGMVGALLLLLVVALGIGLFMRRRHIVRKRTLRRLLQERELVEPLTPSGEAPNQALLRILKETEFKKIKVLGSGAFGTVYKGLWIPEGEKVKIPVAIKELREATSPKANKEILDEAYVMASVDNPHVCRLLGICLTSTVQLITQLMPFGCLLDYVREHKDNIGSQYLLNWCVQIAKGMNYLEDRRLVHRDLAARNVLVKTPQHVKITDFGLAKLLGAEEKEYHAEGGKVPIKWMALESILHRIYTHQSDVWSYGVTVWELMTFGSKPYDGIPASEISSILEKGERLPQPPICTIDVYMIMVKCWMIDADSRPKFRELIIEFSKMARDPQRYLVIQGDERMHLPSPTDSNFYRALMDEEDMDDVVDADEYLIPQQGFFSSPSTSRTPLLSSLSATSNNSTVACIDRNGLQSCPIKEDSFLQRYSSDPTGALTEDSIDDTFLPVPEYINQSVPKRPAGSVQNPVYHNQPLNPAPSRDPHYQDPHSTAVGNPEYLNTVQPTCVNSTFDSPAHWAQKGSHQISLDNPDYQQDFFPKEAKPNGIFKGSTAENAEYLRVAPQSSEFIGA

This experiment has as its target Epidermal growth factor receptor (Homo sapiens) (UniProt P00533). The experiment can be described thus: change in total EGFR protein, up or down, late-stage follow-up, counter-screen for KLF5 inhibitor project, HT29 cells, chemiluminescent western blot (AID 588654). Conditions: 24 h, at 10 µM, active compounds read high.
In the case of `CN(C(=O)CNC(=O)/C=C/c1cccc(Cl)c1)C1CCS(=O)(=O)CC1`, the inhibition is 7.26% (inactive). As for `CN(C(=O)CNC(=O)/C=C/c1cccc(Cl)c1)C1CCS(=O)(=O)C1` (stereo not drawn), the figure is -0.393% (inactive). The same measure for `CN(C(=O)COC(=O)/C=C/c1cccc([N+](=O)[O-])c1)C1CCS(=O)(=O)C1` (stereo not drawn): 16.4% (inactive).

(Values after PubChem BioAssay AID588654 (The Scripps Research Institute Molecular Screening Center, 2011).)
